Results on 27 compounds are retold here after publication PMC8175309, “Translational CNS Steady-State Drug Disposition Model in Rats, Monkeys, and Humans for Quantitative Prediction of Brain-to-Plasma and Cerebrospinal Fluid-to-Plasma Unbound Concentration Ratios” (The AAPS Journal, 2021).

The conditions of series [1]: cited from earlier work.
The conditions of series [2]: cited from earlier work. The source holds these as a separate data set.
A short description of series [3]: Observed Kp,uu,brain and Kp,uu,CSF in monkeys. The settings on record: for Kp,uu,CSF Monkey: lumbar CSF; for Kp,uu,CSF Monkey / Kp,uu,brain Monkey: *1 data internally obtained; for Kp uu at 6 h: cynomolgus monkey, intravenous. The protocol: Monkey experiments were conducted internally or at the Drug Safety Research Laboratories in Shin Nippon Biomedical Laboratories via consignment to Axcelead Drug Discovery Partners. […] Detailed dosage regimen for each compound is summarized in Supplemental Table 3. […] Each cassette was assigned to a separate group of monkeys. The vehicle was saline or a mixture of dimethylacetamide and 1,3-butanediol (1:1, v/v). At the end of the 6-h infusion or 1 h after intravenous bolus administration, the monkeys were anesthetized, and whole blood, CSF, and whole brain were collected. Blood was collected using the anticoagulant, heparin sodium, and immediately centrifuged; the plasma was transferred to polypropylene tubes. Then, ketamine hydrochloride (50 mg/mL; 0.2 mL/kg; 10 mg/kg) was intramuscularly administered. CSF was collected after lumbar puncture using a spinal needle (22–25G) and a syringe pre-wetted with 10% CHAPS solution to prevent adsorption of compounds to all the equipment during pretreatment. CSF samples were immediately centrifuged, and the supernatant layers were transferred to polypropylene tubes. […] After collecting the cerebellum, hippocampus, and cerebral cortex from the whole brain, these were washed with cold saline, weighed, and homogenized immediately in 4 volumes of ice-cold 100 mmol/L sodium phosphate buffer. All samples were stored at –80°C until analysis by LC-MS/MS. Each sample (50 μL) was mixed with the working solution (the mixture of dimethyl sulfoxide and acetonitrile (2:8, v/v)), and protein was precipitated by the addition of 150 μL acetonitrile containing the internal standards (5 ng/mL alprenolol and diclofenac). After centrifugation at 5,250 rpm and 4°C for 5 min, the supernatant (150 μL) was transferred to a polypropylene 96-well plate (Corning; Corning, NY, USA) and completely evaporated under a gentle stream of N2. The residue was reconstituted in dilution solution (mobile phase A/B (7:3, v/v)), and the supernatant was analyzed by LC-MS/MS.
Each sample (50 μL) was mixed with the working solution (the mixture of dimethyl sulfoxide and acetonitrile (2:8, v/v)), and the protein was precipitated by adding 150 μL acetonitrile containing internal standards (5 ng/mL alprenolol and diclofenac). After centrifugation at 5250 rpm and 4°C for 5 min, the supernatant (150 μL) was transferred to a polypropylene 96-well plate (Corning) and completely evaporated under a gentle stream of N2. The residue was reconstituted in mobile phase A/B (7:3, v/v)), and the supernatant was analyzed by LC-MS/MS. API5000 and QTRAP5500 (AB SCIEX, Framingham, MA, USA) equipped with Ultra-Fast Liquid Chromatography (Shimadzu, Kyoto, Japan) were used for determination of drug concentrations. Reversed-phase chromatography was performed using Shim-pack XR ODS (2.2 μm, 2.0×30 mm). Mobile phase A consisted of 10 mM ammonium formate with 0.2% formic acid, and mobile phase B contained acetonitrile with 0.2% formic acid. […] The mass spectrometer was operated in the positive ionization mode with multiple reaction monitoring (MRM). The MRM parameters (Q1 ion, Q3 ion, DP, EP, CE, and CXP) for monitoring the compounds are shown in Supplemental Table 4. Data acquisition and processing were performed using Analyst 1.6.2 (AB SCIEX, Framingham, MA, USA).
To perform correlation analyses between the observed Kp,uu,brain and Kp,uu,CSF, and the model-based prediction of Kp,uu,brain and Kp,uu,CSF, data from literature information were integrated into the internally obtained data for these assessments (Supplemental Table 2) ([17],[22]–[24],[27]–[33]). When only the total concentrations in plasma, CSF, and brain were available, the total concentration ratio in plasma to CSF or brain (Kp,CSF or Kp,brain, respectively) was estimated, followed by calculation of Kp,uu,CSF or Kp,uu,brain based on Eqs.

Like-named read-outs stand apart in the source and are kept apart here.

For the compound `O=C1CN(/N=C/c2ccc([N+](=O)[O-])o2)C(=O)N1` [Nitrofurantoin], in series [1] (*4 ref Friden et al. (21)), the “Kp,uu,CSF Rat” value is 0.0099 and the “Kp,uu,brain Rat” value was 0.011.

With `CC(C)Nc1cccnc1N1CCN(C(=O)c2cc3cc(NS(C)(=O)=O)ccc3[nH]2)CC1` [Delavirdine], in series [2] (*4 ref Friden et al. (21)), the “Kp,uu,CSF Human” value is given as 0.23. Further, in series [1] (*4 ref Friden et al. (21)), the “Kp,uu,CSF Rat” value is 0.051 and the “Kp,uu,brain Rat” value is recorded as 0.043.

For `O=c1n(CCCN2CCN(c3cccc(Cl)c3)CC2)nc2ccccn12` [Trazodone], the “Kp,uu,brain Human” value in series [2] (*3 ref Summerfield et al. (25)) is on record as 0.93. In addition, in series [1] (*3 ref Summerfield et al. (25)), the “Kp,uu,brain Rat” value was 0.957.

`C[C@H]1COc2c(N3CCN(C)CC3)c(F)cc3c(=O)c(C(=O)O)cn1c23` [Levofloxacin]: in series [2] (*4 ref Friden et al. (21)), the “Kp,uu,CSF Human” value is listed as 0.18. Also, in series [1] (*4 ref Friden et al. (21)), the “Kp,uu,CSF Rat” value is given as 0.19 and the “Kp,uu,brain Rat” value is 0.120.

As for `O=C(O)C[C@H](O)C[C@H](O)/C=C/c1c(C2CC2)nc2ccccc2c1-c1ccc(F)cc1` [Pitavastatin], in series [3], the “Kp,uu,CSF Monkey” value was determined as 0.129 and the “Kp,uu,brain Monkey” value came out at 0.242.

For `C=CCOc1ccccc1OCC(O)CNC(C)C` (stereo not shown) [Oxprenolol], in series [1] (*4 ref Friden et al. (21)), the “Kp,uu,CSF Rat” value was 0.1 and the “Kp,uu,brain Rat” value is recorded as 0.200.

Regarding `CSc1ccc2c(c1)N(CCC1CCCCN1C)c1ccccc1S2` (stereo not shown) [Thioridazine], in series [2] (*4 ref Friden et al. (21)), the “Kp,uu,CSF Human” value is 1.4. Besides, the “Kp,uu,brain Rat” value in series [1] (*3 ref Summerfield et al. (25)) is 1.425. In addition, in series [1] (*4 ref Friden et al. (21)), the “Kp,uu,CSF Rat” value is 0.21 and the “Kp,uu,brain Rat” value is 0.45.

Regarding `CNCCC(Oc1ccc(C(F)(F)F)cc1)c1ccccc1` (stereo not shown) [Fluoxetine], in series [2] (*3 ref Summerfield et al. (25)), the “Kp,uu,brain Human” value is reported as 0.53. Also, the “Kp,uu,brain Rat” value in series [1] (*3 ref Summerfield et al. (25)) is 2.143.

Take `CO/N=C(\C(=O)N[C@@H]1C(=O)N2C(C(=O)O)=C(COC(C)=O)CS[C@H]12)c1csc(N)n1` [Cefotaxime]: in series [2] (*4 ref Friden et al. (21)), the “Kp,uu,CSF Human” value is listed as 0.17 and the “Kp,uu,brain Human” value was 0.007.

Turning to `CCn1cc(C(=O)O)c(=O)c2cc(F)c(N3CCNCC3)cc21` [Norfloxacin], the “Kp,uu,CSF Human” value in series [2] (*4 ref Friden et al. (21)) is recorded as 0.11. In series [1] (*4 ref Friden et al. (21)), the “Kp,uu,CSF Rat” value is recorded as 0.018 and the “Kp,uu,brain Rat” value is 0.028.

Take `CN1CCN2c3ncccc3Cc3ccccc3C2C1` (stereo not shown) [Mirtazapine]: the “Kp,uu,brain Human” value in series [2] (*3 ref Summerfield et al. (25)) is 0.79. In series [1] (*3 ref Summerfield et al. (25)), the “Kp,uu,brain Rat” value is 1.611.

As to `O=C1NC(=O)C(c2ccccc2)(c2ccccc2)N1` [Phenytoin], the “Kp,uu,brain Human” value in series [2] (*3 ref Summerfield et al. (25)) was 0.59. The “Kp,uu,brain Rat” value is given as 0.316 in series [1] (*3 ref Summerfield et al. (25)) and 0.447 in series [1] (*7 ref Kodaira et al. (20)). Also, the “Kp,uu,CSF Rat” value in series [1] (in vivo) is listed as 0.396.

In the case of `NCC(CC(=O)O)c1ccc(Cl)cc1` (stereo not shown) [Baclofen], the “Kp,uu,CSF Human” value in series [2] (*4 ref Friden et al. (21)) is listed as 0.17. Also, the “Kp,uu,CSF Rat” value in series [1] (*4 ref Friden et al. (21)) is given as 0.027. Besides, in series [1] (*4 ref Friden et al. (21)), the “Kp,uu,brain Rat” value was 0.02. Moreover, the Kp uu at 6 h in series [3] (CSF (lumbar) / plasma) was found to be 0.03; in series [3] (brain / plasma), 0.037.

Turning to `COc1ccc(C2CNC(=O)C2)cc1OC1CCCC1` (stereo not shown) [Rolipram], in series [2] (*3 ref Summerfield et al. (25)), the “Kp,uu,brain Human” value is 1.00.

Regarding `CN(C)CCCC1(c2ccc(F)cc2)OCc2cc(C#N)ccc21` (stereo not shown) [Citalopram], in series [2] (*3 ref Summerfield et al. (25)), the “Kp,uu,brain Human” value is 0.347. Besides, the entries for the “Kp,uu,brain Rat” value in series [1] (*3 ref Summerfield et al. (25)) and in series [1] (*7 ref Kodaira et al. (20)) were 0.623 and 0.494, respectively. Further, the “Kp,uu,CSF Rat” value in series [1] (*7 ref Kodaira et al. (20)) is reported as 0.667.

Take `O=C(O)c1ccccc1O` [Salicylic acid]: the “Kp,uu,CSF Human” value in series [2] (*4 ref Friden et al. (21)) is 0.19. Further, in series [1] (*4 ref Friden et al. (21)), the “Kp,uu,CSF Rat” value is 0.16 and the “Kp,uu,brain Rat” value is 0.190.

For `CC(C)(C)NC(=O)[C@@H]1C[C@@H]2CCCC[C@@H]2CN1C[C@@H](O)[C@H](Cc1ccccc1)NC(=O)[C@H](CC(N)=O)NC(=O)c1ccc2ccccc2n1` [Saquinavir], in series [2] (*4 ref Friden et al. (21)), the “Kp,uu,CSF Human” value is recorded as 0.096. Besides, the “Kp,uu,brain Rat” value in series [1] (*4 ref Friden et al. (21)) was 0.055.

With `COc1cccc(C2(O)CCCCC2CN(C)C)c1` (stereo not shown) [Tramadol], the “Kp,uu,CSF Human” value in series [2] (in vivo) was 1.44. Further, in series [1] (in vivo), the “Kp,uu,CSF Rat” value is listed as 0.71 and the “Kp,uu,brain Rat” value is given as 1.460.

Consider `NCC1(CC(=O)O)CCCCC1` [Gabapentin], for which, in series [2] (*4 ref Friden et al. (21)), the “Kp,uu,CSF Human” value is on record as 0.16 and the “Kp,uu,brain Human” value was 0.16. In series [1] (*4 ref Friden et al. (21)), the “Kp,uu,CSF Rat” value was 0.067 and the “Kp,uu,brain Rat” value is reported as 0.140.

As for `Cc1c(O)cccc1C(=O)N[C@@H](CSc1ccccc1)[C@H](O)CN1C[C@H]2CCCC[C@H]2C[C@H]1C(=O)NC(C)(C)C` [Nelfinavir], the “Kp,uu,CSF Human” value in series [2] (*4 ref Friden et al. (21)) is 0.045. Besides, in series [1] (*4 ref Friden et al. (21)), the “Kp,uu,CSF Rat” value is on record as 0.067 and the “Kp,uu,brain Rat” value is 0.019. Besides, in series [3], the “Kp,uu,CSF Monkey” value was found to be 0.640 and the “Kp,uu,brain Monkey” value came out at 0.008.

Consider `CN1CC[C@]23c4c5ccc(O[C@@H]6O[C@H](C(=O)O)[C@@H](O)[C@H](O)[C@H]6O)c4O[C@H]2[C@@H](O)C=C[C@H]3[C@H]1C5` [M3G], for which the “Kp,uu,CSF Human” value in series [2] (*4 ref Friden et al. (21)) is given as 0.081. In addition, in series [1] (*4 ref Friden et al. (21)), the “Kp,uu,CSF Rat” value is 0.049 and the “Kp,uu,brain Rat” value was 0.011.

With `CN1CC[C@]23c4c5ccc(O)c4O[C@H]2[C@@H](O[C@@H]2O[C@H](C(=O)O)[C@@H](O)[C@H](O)[C@H]2O)C=C[C@H]3[C@H]1C5` [M6G], the “Kp,uu,CSF Human” value in series [2] (*4 ref Friden et al. (21)) is 0.1. Also, in series [1] (*4 ref Friden et al. (21)), the “Kp,uu,CSF Rat” value is 0.017 and the “Kp,uu,brain Rat” value is 0.008.

For the compound `CO[C@@]1(NC(=O)C(C(=O)O)c2ccc(O)cc2)C(=O)N2C(C(=O)O)=C(CSc3nnnn3C)CO[C@@H]21` (stereo partly shown) [Moxalactam], in series [2] (*4 ref Friden et al. (21)), the “Kp,uu,CSF Human” value was 0.41. In series [1] (*4 ref Friden et al. (21)), the “Kp,uu,CSF Rat” value is 0.02 and the “Kp,uu,brain Rat” value is 0.019.

`CN1CC[C@]23c4c5ccc(O)c4O[C@H]2C(=O)CC[C@@]3(O)[C@H]1C5` [Oxymorphone]: in series [1] (*4 ref Friden et al. (21)), the “Kp,uu,CSF Rat” value is given as 0.91 and the “Kp,uu,brain Rat” value is given as 0.790.

Take `CN(C)CCC=C1c2ccccc2CCc2ccccc21` [Amitriptyline]: in series [2] (*4 ref Friden et al. (21)), the “Kp,uu,CSF Human” value is 0.18. For the same compound, in series [1] (*4 ref Friden et al. (21)), the “Kp,uu,CSF Rat” value was 0.17.

`COc1ccc2c3c1O[C@H]1[C@@H](O)C=C[C@H]4[C@@H](C2)N(C)CC[C@@]341` [Codeine]: in series [2] (in vivo), the “Kp,uu,CSF Human” value is 0.79. For the same compound, in series [1] (in vivo), the “Kp,uu,CSF Rat” value is on record as 0.54 and the “Kp,uu,brain Rat” value is 0.89.

For `CCC(C(N)=O)(C(N)=O)c1ccccc1` [Ethyl-phenylmalonamide], in series [1] (*4 ref Friden et al. (21)), the “Kp,uu,CSF Rat” value was 1.4 and the “Kp,uu,brain Rat” value is on record as 1.250.
